The text below walks through data of patent US20050074803A1, “Method for determining an active agent dose” (Bayer Technology Services GmbH, priority 2003, published 2005).

For data set [1] the following is noted: 0.25 mg digoxin, cited from earlier work.
Data set [2] can be described thus: Experimental maximum plasma concentration of digoxin in patients by MDR1 exon 26 (C3435T) polymorphism. Format: in vivo, human. Conditions: type TT versus wild type. The source says: The transport protein which has been most widely studied and described in the literature is p-glycoprotein (P-Gp) which, besides other organs, is expressed particularly in the gut where it can have an influence on the absorption of orally applied active agents. The associated gene is generally identified as MDR1. MDR1 may be present in different alleles, it being known that these lead to different activity of the associated protein (see Martin F. Fromm, The influence of MDR1 polymorphisms on P-glycoprotein expression and function in humans, Advanced Drug Delivery Reviews 54, 1295 (2002)). For P-Gp, tables of pharmaceutical active agents which are a substrate for it have been published (see for example C. J. Matheny et al., Pharmacokinetic and Pharmacodynamic Implications of P-glycoprotein Modulation, Pharmacotherapy, 21, 778 (2001)). One example of such a substrate is digoxin.
For instance, the Cmax values (maximum plasma concentration) listed in Table 1 are given for the polymorphism in exon 26 (C3435T).

The conditions of data set [3]: human.

Read-outs that look alike come from different tables or passages of the source.

By clearance is commonly meant the rate of elimination divided by the concentration. The low end stands for a low capacity for elimination, the high end for a high capacity for elimination. By Papp is commonly meant a coefficient for how fast a substance crosses the barrier. By fraction unbound is commonly meant free concentration divided by total concentration. The low end stands for little free substance, the high end for much free substance. For the molecule `C[C@H]1O[C@@H](O[C@H]2[C@@H](O)C[C@H](O[C@H]3[C@@H](O)C[C@H](O[C@H]4CC[C@@]5(C)[C@H](CC[C@@H]6[C@@H]5C[C@@H](O)[C@]5(C)[C@@H](C7=CC(=O)OC7)CC[C@]65O)C4)O[C@@H]3C)O[C@@H]2C)C[C@H](O)[C@@H]1O` [digoxin], the Cmax experiment is 1.6 ng/mL in data set [1] (patients with CC (wild type) polymorphism in exon 26 (C3435T) of MDR1, plasma) and 2.1 ng/mL in data set [1] (patients with TT (homozygotic) polymorphism in exon 26 (C3435T) of MDR1, plasma). For the same molecule, in data set [2], the “experimentally found increase of Cmax” value came to 30%. The clearance in data set [3] turned out to be 0.48 mL/min/kg. For the same molecule, the apparent permeability (Papp) in data set [3] (not told) was found to be 1.4 ×10⁻⁶ cm/s. In addition, the free fraction (fraction unbound) in data set [3] (plasma) was 0.73.
